In patent US8846694B2, “Pyrrolidone derivatives for use as MetAP-2 inhibitors” (Merck Patent GmbH, priority 2008, dated 2014):

target: MetAP-2 (Homo sapiens, UniProt P50579); assay: MetAP-2 activity measurement (coupled enzymatic reactions, substrate Met-Arg-Ser, photometric at 450 nm); format: biochemical; conditions: read-out: IC50 enzyme (Inhibition of MetAP-2)
Procedure: MetAP-2 Activity Measurement
The MetAP-2 activity is determined by coupling enzymatic reactions. The tripeptide Met-Arg-Ser (MAS) is employed as substrate. The methionine liberated is firstly converted into Metox and H2O2 by L-aminooxidase (AAO). In the second step, the peroxidase (POD) with the aid of the H2O2 catalyses the oxidation of the leukodye dianisidine to dianisidineox, the increase of which is detected photometrically at 450 nm.
MetAP-2 activity can be recorded continuously as kinetics. The reaction scheme illustrates that one mol of dianisidineox is formed per mol of methionene. The MetAP-2 enzyme activity can therefore be calculated directly as Δ absorption per time unit. […] of the MetAP-2 activity (mol of Met/time unit) is possible with the aid of the dianisidineox extinction coefficient.
The change in extinction per time unit is depicted graphically and a slope calculation is carried out in the visually linear region of the reaction.

Sequence of MetAP-2 (P50579 whole entry, species assumed): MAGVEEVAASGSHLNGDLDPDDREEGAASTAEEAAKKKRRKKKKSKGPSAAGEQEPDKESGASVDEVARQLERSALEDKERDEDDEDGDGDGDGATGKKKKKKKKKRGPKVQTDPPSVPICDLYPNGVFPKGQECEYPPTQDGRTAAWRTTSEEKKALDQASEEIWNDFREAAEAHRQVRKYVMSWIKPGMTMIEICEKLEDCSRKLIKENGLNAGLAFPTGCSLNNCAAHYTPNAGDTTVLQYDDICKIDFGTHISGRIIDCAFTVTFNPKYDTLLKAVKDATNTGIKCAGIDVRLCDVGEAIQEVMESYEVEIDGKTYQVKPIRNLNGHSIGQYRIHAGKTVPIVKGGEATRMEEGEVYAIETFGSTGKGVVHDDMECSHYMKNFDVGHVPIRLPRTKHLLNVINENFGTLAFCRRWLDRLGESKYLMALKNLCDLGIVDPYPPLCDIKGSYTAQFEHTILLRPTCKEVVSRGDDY

IC50 [nM] | Compound
10 to 1000 | O=CN(CCN1CCOCC1)Cc1ccc(OC[C@H]2CCCN2c2ncnc3[nH]cnc23)c2ccccc12 [A94, N-(2-Morpholin-4-ylethyl)-N-{4-[(R)-1-(9H-purin-6-yl)pyrrolidin-2-ylmethoxy]naphthalen-1-yl-methyl}formamide]
10 to 1000 | c1ccc2c(OC[C@H]3CCCN3c3ncnc4[nH]cnc34)ccc(CNCCCN3CCOCC3)c2c1 [A95, (3-Morpholin-4-ylpropyl)-{4-[(R)-1-(9H-purin-6-yl)pyrrolidin-2-ylmethoxy]naphthalen-1-yl-methyl}amine]
10 to 1000 | O=C1c2cccc(OC[C@H]3CCCN3c3ncnc4[nH]cnc34)c2CC[C@@H]1Cc1c[nH]cn1 [A96, (R)-2-(1H-Imidazol-4-ylmethyl)-5-[(R)-1-(9H-purin-6-yl)pyrrolidin-ylmethoxy]-3,4-dihydro-2H-naphthalen-1-one]
10 to 1000 | O=C1c2cccc(OC[C@H]3CCCN3c3ncnc4[nH]cnc34)c2CC[C@H]1Cc1c[nH]cn1 [A97, (S)-2-(1H-Imidazol-4-y!methyl)-5-[(R)-1-(9H-purin-6-yl)pyrrolidin-2-ylmethoxy]-3,4-dihydro-2H-naphthalen-1-one]
10 to 1000 | CC(=O)N(CCN1CCCCC1)Cc1ccc(OC[C@H]2CCCN2c2ncnc3[nH]cnc23)c2ccccc12 [A98, N-(2-Piperidin-1-ylethyl)-N-{4-[(R)-1-(9H-purin-6-yl)pyrrolidin-2-ylmethoxy]naphthalen-1-yl-methyl]acetamide]
10 to 1000 | CC(=O)N(Cc1ccn(C)n1)Cc1ccc(OC[C@H]2CCCN2c2ncnc3[nH]cnc23)c2ccccc12 [A99, N-(1-Methyl-1H-pyrazol-3-ylmethyl)-N-{4-[(R)-1-(9H-purin-6-yl)pyrrolidin-2-ylmethoxy]-naphthalen-1-ylmethyl}acetamide]
10 to 1000 | CC(=O)N(Cc1ccc(OC[C@H]2CCCN2c2ncnc3[nH]cnc23)c2ccccc12)CC(O)CO (stereo partly drawn) [A100, N-(2,3-Dihydroxypropyl)-N-{4-[(R)-1-(9H-purin-6-yl)pyrrolidin-2-ylmethoxy]naphthalen-1-yl-methyl}acetamide]
10 to 1000 | O=CN(CCN1CCCCC1)Cc1ccc(OC[C@H]2CCCN2c2ncnc3[nH]cnc23)c2ccccc12 [A101, N-(2-Piperidin-1-ylethyl)-N-{4-[(R)-1-(9H-purin-6-yl)pyrrolidin-2-ylmethoxy]naphthalen-1-yl-methyl}formamide]
10 to 1000 | Cn1ccc(CN(C=O)Cc2ccc(OC[C@H]3CCCN3c3ncnc4[nH]cnc34)c3ccccc23)n1 [A102, N-(1-Methyl-1H-pyrazol-3-ylmethyl)-N-{4-[(R)-1-(9H-purin-6-yl)pyrrolidin-2-ylmethoxy]-naphthalen-1-ylmethyl}formamide]
1000 to 10000 | c1ccc(-c2nc3ccccc3s2)c(OC[C@H]2CCCN2c2ncnc3[nH]cnc23)c1 [A103, 6-[(R)-2-(2-Benzothiazol-2-ylphenoxymethyl)-pyrrolidin-1-yl]-9H-purine]
1000 to 10000 | c1cc(OC[C@H]2CCCN2c2ncnc3[nH]cnc23)c2nccn2c1 [A104, 6-[(R)-2-(Imidazo[1,2-a]pyridin-8-yloxymethyl)-pyrrolidin-1-yl]-9H-purine]
10 to 1000 | FC(F)(F)c1cc(OC[C@H]2CCCN2c2ncnc3[nH]cnc23)c2cc(Cl)ccc2n1 [A105, 6-Chloro-4-[(R)-1-(9H-purin-6-yl)pyrrolidin-2-yl-methoxy]-2-trifluoromethylquinoline]
> 10000 | c1ccc(CN2CCN(c3ccc4cccc(OC[C@H]5CCCN5c5ncnc6[nH]cnc56)c4c3)CC2)cc1 [A106, 6-{(R)-2-[7-(4-Benzylpiperazin-1-yl)naphthalen-1-yloxymethyl]pyrrolidin-1-yI}-9H-purine]
1000 to 10000 | CN(C)c1ccc2cc(S(=O)(=O)O)cc(OC[C@H]3CCCN3c3ncnc4[nH]cnc34)c2c1 [A107, 6-Dimethylamino-4-[(R)-1-(9H-purin-6-yl)-pyrrolidin-2-ylmethoxy]naphthalene-2-sulfonic acid]
> 10000 | c1ccc2c(NC[C@H]3CCCN3c3ncnc4[nH]cnc34)cccc2c1 [A108, Naphthalen-1-yl[(R)-1-(9H-purin-6-yl)pyrrolidin-2-ylmethyl]amine]
10 to 1000 | c1ccc2c(OC[C@H]3CCCN3c3ncnc4[nH]cnc34)nccc2c1 [A109, 1-[(R)-1-(9H-Purin-6-yl)pyrrolidin-2-yl-methoxy]isoquinoline]
10 to 1000 | CCCN1CCN(Cc2ccc(OC[C@H]3CCCN3c3ncnc4[nH]cnc34)c3ccccc23)CC1 [A110, 6-{(R)-2-[4-(4-Propylpiperazin-1-ylmethyl)-naphthalen-1-yloxymethyl]pyrrolidin-1-yl}-9H-purine]
10 to 1000 | CC(=O)N1CCN(Cc2ccc(OC[C@H]3CCCN3c3ncnc4[nH]cnc34)c3ccccc23)CC1 [A111, 1-(4-{4-[(R)-1-(9H-Purin-6-yl)pyrrolidin-2-yl-methoxy]naphthalen-1-ylmethyl}piperazin-1-yl)-ethanone]

IC50 [nM] | Compound
10 to 1000 | c1ccc2c(OC[C@H]3CCCN3c3ncnc4[nH]cnc34)ccc(CN3CCN(C4CCCC4)CC3)c2c1 [A112, 6-{(R)-2-[4-(4-Cyclopentylpiperazin-1-yl-methyl)naphthalen-1-yloxymethyl]pyrrolidin-1-yl}-9H-purine]
10 to 1000 | COCCN1CCN(Cc2ccc(OC[C@H]3CCCN3c3ncnc4[nH]cnc34)c3ccccc23)CC1 [A113, 6-((R)-2-{4-[4-(2-Methoxyethyl)piperazin-1-yl-methyl]naphthalen-1-yloxymethyl}pyrrolidin-1-yl)-9H-purine]
10 to 1000 | OC[C@H]1CCCN1Cc1ccc(OC[C@H]2CCCN2c2ncnc3[nH]cnc23)c2ccccc12 [A114, ((R)-1-{4-[(R)-1-(9H-Purin-6-yl)pyrrolidin-2-yl-methoxy]naphthalen-1-ylmethyl}pyrrolidin-2-yl)-methanol]
10 to 1000 | c1cc(OC[C@H]2CCCN2c2ncnc3[nH]cnc23)c2cc(N3CCNCC3)ccc2c1 [A115, 6-[(R)-2-(7-Piperazin-1-ylnaphthalen-1-yl-oxymethyl)pyrrolidin-1-yl]-9H-purine]
10 to 1000 | CC(=O)N1CCN(c2ccc3cccc(OC[C@H]4CCCN4c4ncnc5[nH]cnc45)c3c2)CC1 [A116, 1-(4-{8-[(R)-1-(9H-Purin-6-yl)pyrrolidin-2-yl-methoxy]naphthalen-2-yl}piperazin-1-yl)-ethanone]
10 to 1000 | Cc1ccc2nc(C(F)(F)F)cc(OC[C@H]3CCCN3c3ncnc4[nH]cnc34)c2c1 [A117, 6-Methyl-4-[(R)-1-(9H-purin-6-yl)pyrrolidin-2-yl-methoxy]-2-trifluoromethylquinoline]
10 to 1000 | COc1ccc2cccc(OC[C@H]3CCCN3c3ncnc4[nH]cnc34)c2c1 [A118, 6-[(R)-2-(7-Methoxynaphthalen-1-yloxymethyl)-pyrrolidin-1-yl]-9H-purine]
1000 to 10000 | O=C(OCc1ccccc1)N1CCc2cccc(OC[C@H]3CCCN3c3ncnc4[nH]cnc34)c2C1 [A120, Benzyl 8-[(R)-1-(9H-purin-6-yl)pyrrolidin-2-yl-methoxy]-3,4-dihydro-1H-isoquinoline-2-carboxylate]
1000 to 10000 | O=C1CCc2cccc(OC[C@H]3CCCN3c3ncnc4[nH]cnc34)c2C1 [A121, 8-[(R)-1-(9H-Purin-6-yl)pyrrolidin-2-ylmethoxy]-3,4-dihydro-1H-naphthalen-2-one]
10 to 1000 | c1cc2c(c(OC[C@H]3CCCN3c3ncnc4[nH]cnc34)c1)CNCC2 [A122, 8-[(R)-1-(9H-Purin-6-yl)pyrrolidin-2-ylmethoxy]-1,2,3,4-tetrahydroisoquinoline]
10 to 1000 | FC(F)(F)c1ccc2nccc(OC[C@H]3CCCN3c3ncnc4[nH]cnc34)c2c1 [A123, 4-[(R)-1-(9H-Purin-6-yl)pyrrolidin-2-ylmethoxy]-6-trifluoromethylquinoline]
1000 to 10000 | Oc1ccc2cccc(OC[C@H]3CCCN3c3ncnc4[nH]cnc34)c2c1 [A124, 8-[(R)-1-(9H-Purin-6-yl)pyrrolidin-2-yl-methoxy]naphthalen-2-ol]
10 to 1000 | Cn1ncc(Cl)c1C[C@@H]1CCc2c(OC[C@H]3CCCN3c3ncnc4[nH]cnc34)cccc2C1=O [A125, (S)-2-(4-Chloro-2-methyl-2H-pyrazol-3-yl-methyl)-5-[(R)-1-(9H-purin-6-yl)pyrrolidin-2-yl-methoxy]-3,4-dihydro-2H-naphthalen-1-one]
10 to 1000 | Cn1ncc(Cl)c1C[C@H]1CCc2c(OC[C@H]3CCCN3c3ncnc4[nH]cnc34)cccc2C1=O [A126, (R)-2-(4-Chloro-2-methyl-2H-pyrazol-3-yl-methyl)-5-[(R)-1-(9H-purin-6-yl)pyrrolidin-2-yl-methoxy]-3,4-dihydro-2H-naphthalen-1-one]
10 to 1000 | CCN(CC)C(=O)c1cc2cccc(OC[C@H]3CCCN3c3ncnc4[nH]cnc34)c2cc1O [A127, N,N-Diethyl-3-hydroxy-5-[(R)-1-(9H-purin-6-yl)-pyrrolidin-2-ylmethoxy]naphthalene-2-carboxamide]
10 to 1000 | N#CCCN1CCN(Cc2ccc(OC[C@H]3CCCN3c3ncnc4[nH]cnc34)c3ccccc23)CC1 [A128, 3-(4-{4-[(R)-1-(9H-Purin-6-yl)pyrrolidin-2-yl-methoxy]naphthalen-1-ylmethyl}piperazin-1-yl)-propionitrile]
10 to 1000 | O=C1c2cccc(OC[C@H]3CCCN3c3ncnc4[nH]cnc34)c2CC[C@@H]1Cc1cc[nH]n1 [A129, (R)-5-[(R)-1-(9H-Purin-6-yl)pyrrolidin-2-yl-methoxy]-2-(1H-pyrazol-3-ylmethyl)-3,4-dihydro-2H-naphthalen-1-one]

Compound | IC50 [nM]
CCCCOC1=Cc2c(cccc2OC[C@H]2CCCN2c2ncnc3[nH]cnc23)CC1 [A119, 6-[(R)-2-(7-Butoxy-5,6-dihydronaphthalen-1-yl-oxymethyl)pyrrolidin-1-yl]-9H-purine] | 1000 to 10000
